Experimental data from US20250197409A1, “BIFUNCTIONAL COMPOUND AND PHARMACEUTICAL COMPOSITION COMPRISING THE BIFUNCTIONAL COMPOUND, AND METHOD FOR TREATING ANDROGEN RECEPTOR RELATED DISEASE BY USING THE SAME” (ANHORN MEDICINES CO., LTD., priority 2022, published 2025).
Where two headings read alike, the source gives them in different places.

Key:
[1] = tested on: Androgenetic Alopecia (AGA) Mice Model; assay: In vivo hair regrowth efficacy in androgenetic alopecia (AGA) mice model; settings: DHT pre-treated male C57BL/6 mice, topical 3.5 μg/cm2/day once daily, day 20; DHT+vehicle group 3.5
Protocol: Seven-week old male C57BL/6 mice (with black fur) purchased from BioLASCO Taiwan Co., Ltd. were grouped 6 to 8 mice per cage, and intraperitoneally administered with dihydrotestosterone (DHT) (1 mg/day, dissolved in corn oil) or corn oil alone once daily for four days. DHT is an agonist to androgen receptors, which can be used to induce symptoms of androgenetic alopecia.
Four days later, the dorsal region of the mice was depilated with hair removal cream (Nair Sensitive Hair Removal Cream, 100 mg to 200 mg per mouse). After hair removal, the skin color was recorded by photographs with a resolution of 4032*3024 pixel (day 1, D1). On the next day (D2), the test solutions of the compound 29 and compound 33 in a vehicle were prepared (3.5 μg/cm^2/day), and each test solution or vehicle alone was topically administered on the depilated region once daily for 20 days. The hair removal cream, the test solution and the vehicle were separately rubbed into the dorsal region of mice. The photographs underwent analysis using a self-developed software that utilized auto-image segmentation, primarily focusing on the border of the depilation area. This segmentation process involved classifying different regions within the images. […] The hair regrowth efficacy could be evaluated by the photographs and/or the skin color score.

[2] = target: T1, androgen receptor (Homo sapiens, UniProt P10275, T878A); assay: Androgen receptor degradation assay using Western blot analysis; assay type: cell-based
T1 construct: host or cells: LNCaP.FGC
T1 sequence (P10275 whole entry T878A): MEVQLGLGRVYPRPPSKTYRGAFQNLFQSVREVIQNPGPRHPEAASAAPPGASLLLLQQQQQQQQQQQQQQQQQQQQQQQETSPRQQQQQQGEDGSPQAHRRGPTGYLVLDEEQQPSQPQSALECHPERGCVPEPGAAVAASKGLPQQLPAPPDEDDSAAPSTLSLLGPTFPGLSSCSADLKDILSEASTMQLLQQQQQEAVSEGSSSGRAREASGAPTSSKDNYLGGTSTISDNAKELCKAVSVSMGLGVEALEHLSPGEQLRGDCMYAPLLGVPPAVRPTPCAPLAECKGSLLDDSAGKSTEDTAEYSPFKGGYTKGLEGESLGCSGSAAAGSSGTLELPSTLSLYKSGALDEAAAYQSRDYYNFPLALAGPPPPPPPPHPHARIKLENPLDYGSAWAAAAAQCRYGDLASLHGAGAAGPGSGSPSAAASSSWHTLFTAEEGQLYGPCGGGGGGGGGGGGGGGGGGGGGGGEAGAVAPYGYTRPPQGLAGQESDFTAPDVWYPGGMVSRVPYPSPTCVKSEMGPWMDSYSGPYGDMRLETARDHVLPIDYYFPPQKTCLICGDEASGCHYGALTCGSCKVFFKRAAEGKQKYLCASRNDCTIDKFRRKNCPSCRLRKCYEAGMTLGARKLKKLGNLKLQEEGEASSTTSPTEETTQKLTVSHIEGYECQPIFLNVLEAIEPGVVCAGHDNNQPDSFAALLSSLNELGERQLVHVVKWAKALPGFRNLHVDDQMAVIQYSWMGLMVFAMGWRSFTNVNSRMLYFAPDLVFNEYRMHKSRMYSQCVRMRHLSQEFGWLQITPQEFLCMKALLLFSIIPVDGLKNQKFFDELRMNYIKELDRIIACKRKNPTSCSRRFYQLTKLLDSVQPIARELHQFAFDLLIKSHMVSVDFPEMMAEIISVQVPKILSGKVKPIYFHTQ
T1 sequence (Q96SW2 whole entry partner): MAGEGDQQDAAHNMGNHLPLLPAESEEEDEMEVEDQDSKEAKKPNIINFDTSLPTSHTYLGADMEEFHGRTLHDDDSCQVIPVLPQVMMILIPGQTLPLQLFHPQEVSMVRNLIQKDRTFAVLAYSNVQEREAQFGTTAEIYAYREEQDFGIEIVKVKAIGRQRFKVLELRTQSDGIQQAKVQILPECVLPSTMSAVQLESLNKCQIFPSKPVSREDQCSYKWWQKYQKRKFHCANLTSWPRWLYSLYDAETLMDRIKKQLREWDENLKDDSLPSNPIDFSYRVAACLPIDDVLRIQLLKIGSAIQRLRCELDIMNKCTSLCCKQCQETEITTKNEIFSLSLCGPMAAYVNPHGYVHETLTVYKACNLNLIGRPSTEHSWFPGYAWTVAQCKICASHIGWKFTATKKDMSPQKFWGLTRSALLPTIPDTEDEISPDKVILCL
Outline: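 LNCaP.FGC cells (2×10^5/well) treated with 10-fold serial dilutions in RPMI from 100 nM stock; untreated cells as negative control. AR Western signal normalized to GAPDH, expressed as % remaining versus untreated (100%). DC50 derived from calibration curve of serial dilutions.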

[3] = 24 h, read-out: Androgen Receptor Remaining (%), LNCaP.FGC cells, 100 nM, 24 hr, normalized to GAPDH, untreated cells = 100%
[4] = read-out: AR DC50 (concentration needed for 50% AR degradation); LNCaP.FGC cells, serial 10x dilutions from 100 nM
[5] = 24 h, LNCaP.FGC cells, 100 nM, 24 hr, normalized to GAPDH, untreated cells = 100%; read-out: Androgen Receptor Remaining (%)
[6] = LNCaP.FGC cells, serial 10x dilutions from 100 nM; read-out: AR DC50 (concentration needed for 50% AR degradation)

| Structure (SMILES) | remaining activity at 0.1 µM [2, 3] | DC50 [2, 4] | other results |
| --- | --- | --- | --- |
| CCn1c2c(c3ccc(OCCN4CCN(c5ccc(C(=O)N[C@H]6CC[C@H](Oc7ccc(C#N)c(Cl)c7)CC6)nn5)CC4)cc31)C(=O)N(C1CCC(=O)NC1=O)C2=O (stereo partly drawn) [Compound 33] | 27% | 10 to 25 nM | average skin color score (1 = depilated skin, 8 = fully regrown hair) [1]: 6.5 |
| CCn1c2c(c3ccc(OCCCN4CCN(c5ccc(C(=O)N[C@H]6CC[C@H](Oc7ccc(C#N)c(Cl)c7)CC6)nn5)CC4)cc31)C(=O)N(C1CCC(=O)NC1=O)C2=O (stereo partly drawn) [Compound 29] | 31% | 10 to 25 nM | average skin color score (1 = depilated skin, 8 = fully regrown hair) [1]: 8 |
| CCn1c2c(c3ccc(OCCC4CCN(c5ccc(C(=O)N[C@H]6CC[C@H](N(C)c7ccc(C#N)c(Cl)c7)CC6)nn5)CC4)cc31)C(=O)N(C1CCC(=O)NC1=O)C2=O (stereo partly drawn) [Compound 140] | 32% | 25 to 100 nM |  |
| CCn1c2c(c3ccc(OCC(C)CN4CCN(c5ccc(C(=O)N[C@H]6CC[C@H](N(C)c7ccc(C#N)c(Cl)c7)CC6)nn5)CC4)cc31)C(=O)N(C1CCC(=O)NC1=O)C2=O (stereo partly drawn) [Compound 193] |  | 25 to 100 nM |  |
| Cn1c2c(c3ccc(OCCN4CCN(c5ccc(C(=O)N[C@H]6C(C)(C)[C@H](Oc7ccc(C#N)c(Cl)c7)C6(C)C)nc5)CC4)cc31)C(=O)N(C1CCC(=O)NC1=O)C2=O (stereo partly drawn) [Compound 9] |  |  | remaining activity at 0.1 µM [2, 5]: 73%; DC50 [2, 6]: > 100 nM |
| CCn1c2c(c3ccc(OCCCN4CCN(c5ccc(C(=O)N[C@H]6CC[C@H](Oc7ccc(C#N)c(Cl)c7)CC6)nn5)[C@@H](C)C4)cc31)C(=O)N(C1CCC(=O)NC1=O)C2=O (stereo partly drawn) [Compound 65] | 32% | 25 to 100 nM |  |
| CCn1c2c(c3ccc(OCCCC4CCN(c5ccc(C(=O)N[C@H]6CC[C@H](Oc7ccc(C#N)c(Cl)c7)CC6)nn5)CC4)cc31)C(=O)N(C1CCC(=O)NC1=O)C2=O (stereo partly drawn) [Compound 163] | 41% |  |  |
| CC[C@H]1CN(CCOc2ccc3c4c(n(CC)c3c2)C(=O)N(C2CCC(=O)NC2=O)C4=O)CCN1c1ccc(C(=O)N[C@H]2CC[C@H](Oc3ccc(C#N)c(Cl)c3)CC2)nn1 (stereo partly drawn) [Compound 58] | 65% |  |  |
| CCn1c2c(c3ccc(OCCCN4[C@H](C)CN(c5ccc(C(=O)N[C@H]6CC[C@H](Oc7ccc(C#N)c(Cl)c7)CC6)nn5)C[C@@H]4C)cc31)C(=O)N(C1CCC(=O)NC1=O)C2=O (stereo partly drawn) [Compound 76] | 78% |  |  |
| CCn1c2c(c3ccc(OCCCN4CC=C(c5ccc(C(=O)N[C@H]6CC[C@H](Oc7ccc(C#N)c(Cl)c7)CC6)nn5)CC4)cc31)C(=O)N(C1CCC(=O)NC1=O)C2=O (stereo partly drawn) [Compound 190] |  | 10 to 25 nM |  |
| Cn1c2c(c3ccc(NC(=O)CN4CCN(c5ccc(C(=O)N[C@H]6C(C)(C)[C@H](Oc7ccc(C#N)c(Cl)c7)C6(C)C)nn5)CC4)cc31)C(=O)N(C1CCC(=O)NC1=O)C2=O (stereo partly drawn) [Compound 50] |  |  | remaining activity at 0.1 µM [2, 5]: 45%; DC50 [2, 6]: 25 to 100 nM |
| Cn1c2c(c3ccc(OCCCN4CCC5(CC4)CCN(c4ccc(C(=O)N[C@H]6CC[C@H](N(C)c7ccc(C#N)c(Cl)c7)CC6)nn4)CC5)cc31)C(=O)N(C1CCC(=O)NC1=O)C2=O (stereo partly drawn) [Compound 198] |  | < 10 nM |  |
| CCn1c2c(c3ccc(OCC(=O)N4CCN(c5ccc(C(=O)N[C@H]6CC[C@H](Oc7ccc(C#N)c(Cl)c7)CC6)nn5)CC4)cc31)C(=O)N(C1CCC(=O)NC1=O)C2=O (stereo partly drawn) [Compound 121] | 48% | 25 to 100 nM |  |
| Cn1c2c(c3cc(OCCN4CCN(c5ccc(C(=O)N[C@H]6C(C)(C)[C@H](Oc7ccc(C#N)c(Cl)c7)C6(C)C)cn5)CC4)ccc31)C(=O)N(C1CCC(=O)NC1=O)C2=O (stereo partly drawn) [Compound 19] |  |  | remaining activity at 0.1 µM [2, 5]: 73% |
| CCn1c2c(c3ccc(OCCN4C[C@H](C)N(c5ccc(C(=O)N[C@H]6CC[C@H](Oc7ccc(C#N)c(Cl)c7)CC6)nn5)C[C@H]4C)cc31)C(=O)N(C1CCC(=O)NC1=O)C2=O (stereo partly drawn) [Compound 55] | 40% | 25 to 100 nM |  |
| Cn1c2c(c3ccc(NC(=O)CN4CCCN(c5ccc(C(=O)N[C@H]6CC[C@H](Oc7ccc(C#N)c(Cl)c7)CC6)nn5)CC4)cc31)C(=O)N(C1CCC(=O)NC1=O)C2=O (stereo partly drawn) [Compound 68] |  |  | remaining activity at 0.1 µM [2, 5]: 81% |
| Cn1c2c(c3ccc(OCCOC4CCN(c5ccc(C(=O)N[C@H]6CC[C@H](Oc7ccc(C#N)c(Cl)c7)CC6)nn5)CC4)cc31)C(=O)N(C1CCC(=O)NC1=O)C2=O (stereo partly drawn) [Compound 168] |  |  | remaining activity at 0.1 µM [2, 5]: 20%; DC50 [2, 6]: 10 to 25 nM |
| CCn1c2c(c3ccc(OCCN4CCCN(c5ccc(C(=O)N[C@H]6CC[C@H](N(C)c7ccc(C#N)c(Cl)c7)CC6)nn5)CC4)cc31)C(=O)N(C1CCC(=O)NC1=O)C2=O (stereo partly drawn) [Compound 110] | 34% | 10 to 25 nM |  |
